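Following 48 hours of exposure in 96-well plates, responses at five concentrations were used to interpolate endpoints linearly. The concentration for full growth arrest is given as TGI.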
Legend:
Test in all cases: NCI anticancer screen, dose series, 48 h
HL-60(TB) leukemia = system: HL-60(TB) leukemia
MDA-MB-231 breast = system: MDA-MB-231 breast
SNB-19 CNS = system: SNB-19 CNS
SK-MEL-28 melanoma = system: SK-MEL-28 melanoma
NCI-H460 lung = system: NCI-H460 lung
DU-145 prostate = system: DU-145 prostate
K-562 leukemia = system: K-562 leukemia
SF-295 CNS = system: SF-295 CNS
NCI-H23 lung = system: NCI-H23 lung
CCRF-CEM leukemia = system: CCRF-CEM leukemia
NCI-H522 lung = system: NCI-H522 lung
SF-268 CNS = system: SF-268 CNS
HCC-2998 colon = system: HCC-2998 colon
ACHN renal = system: ACHN renal
EKVX NSCLC = system: EKVX NSCLC
A549 NSCLC = system: A549 NSCLC
KM12 colon = system: KM12 colon
SK-OV-3 ovarian = system: SK-OV-3 ovarian
OVCAR-4 ovarian = system: OVCAR-4 ovarian
A498 renal = system: A498 renal
UO-31 renal = system: UO-31 renal
HOP-62 NSCLC = system: HOP-62 NSCLC
NCI-H226 lung = system: NCI-H226 lung
TK-10 renal = system: TK-10 renal
UACC-257 melanoma = system: UACC-257 melanoma
UACC-62 melanoma = system: UACC-62 melanoma
OVCAR-5 ovarian = system: OVCAR-5 ovarian
HCT-116 colon = system: HCT-116 colon
COLO 205 colon = system: COLO 205 colon
MDA-MB-435 = system: MDA-MB-435
HT29 colon = system: HT29 colon
SK-MEL-5 melanoma = system: SK-MEL-5 melanoma
PC-3 prostate = system: PC-3 prostate
RXF 393 renal = system: RXF 393 renal
RPMI-8226 leukemia = system: RPMI-8226 leukemia
MDA-N = system: MDA-N
MOLT-4 leukemia = system: MOLT-4 leukemia
SN12C renal = system: SN12C renal
786-0 renal = system: 786-0 renal
SNB-75 CNS = system: SNB-75 CNS
SK-MEL-2 melanoma = system: SK-MEL-2 melanoma
SF-539 CNS = system: SF-539 CNS
HCT-15 colon = system: HCT-15 colon
NCI/ADR-RES ovarian = system: NCI/ADR-RES ovarian
CAKI-1 renal = system: CAKI-1 renal
SW-620 colon = system: SW-620 colon
U251 CNS = system: U251 CNS
BT-549 breast = system: BT-549 breast
OVCAR-8 ovarian = system: OVCAR-8 ovarian
OVCAR-3 ovarian = system: OVCAR-3 ovarian
M14 melanoma = system: M14 melanoma

Measured: TGI

CSc1nc(-c2cc3c(c(SC)n2)CCC3)cc2c1CCC2
> 100 µM: all assays above

Source: PubChem BioAssay (NCI)
